How the values were obtained:
Experiment in all cases: relative viability (nuclei count vs DMSO), 5 days (fraction); higher = more cells survive
Trametinib + Olaparib = compound: CC(=O)Nc1cccc(-n2c(=O)n(C3CC3)c(=O)c3c(Nc4ccc(I)cc4F)n(C)c(=O)c(C)c32)c1 [Trametinib] + O=C(c1cc(Cc2n[nH]c(=O)c3ccccc23)ccc1F)N1CCN(C(=O)C2CC2)CC1 [Olaparib] (partner 8 µM)
How it was run: (§1)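 Relative viability divides the nuclei count in treated wells by that in vehicle wells. Lung cancer cell lines were seeded in 1536-well plates, dosed by pin tool the next day, and fixed and stained after 5 days in one step with final 0.05% Triton X-100, 1% formaldehyde and 1 ug/ml Hoechst. Dosing was a single drug or a fixed anchor-drug dose plus five library-drug doses (not always all listed) in √10 steps, and values are medians of duplicate plates imaged at 4×.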

[1] = compound: CN1C=C(C2=CC=CC=C21)/C=C\3/C4=C(C=CC=N4)NC3=O + Cc1nc(Nc2ncc(C(=O)Nc3c(C)cccc3Cl)s2)cc(N2CCN(CCO)CC2)n1 [Dasatinib] (partner 0.075 µM)
How it was run: as §1

[2] = compound: CN1C=C(C2=CC=CC=C21)/C=C\3/C4=C(C=CC=N4)NC3=O + CCNC(=O)c1noc(-c2cc(C(C)C)c(O)cc2O)c1-c1ccc(CN2CCOCC2)cc1 [Luminespib] (partner 0.01 µM)
How it was run: as §1

Trametinib + Tozasertib = compound: CC(=O)Nc1cccc(-n2c(=O)n(C3CC3)c(=O)c3c(Nc4ccc(I)cc4F)n(C)c(=O)c(C)c32)c1 [Trametinib] + Cc1cc(Nc2cc(N3CCN(C)CC3)nc(Sc3ccc(NC(=O)C4CC4)cc3)n2)n[nH]1 [Tozasertib] (partner 0.1 µM)
How it was run: as §1

| Cell Line | relative viability (Trametinib + Olaparib; first compound 0.0025 µM) | relative viability (Trametinib + Olaparib; first compound 0.007906 µM) | relative viability (Trametinib + Olaparib; first compound 0.025 µM) | relative viability (Trametinib + Olaparib; first compound 0.07906 µM) | relative viability (Trametinib + Olaparib; first compound 0.25 µM) | relative viability ([1]; first compound 0.02 µM) | relative viability ([1]; first compound 0.06325 µM) | relative viability ([1]; first compound 0.2 µM) | relative viability ([1]; first compound 0.6325 µM) | relative viability ([1]; first compound 2 µM) | relative viability ([2]; first compound 0.02 µM) | relative viability ([2]; first compound 0.06325 µM) | relative viability ([2]; first compound 0.2 µM) | relative viability ([2]; first compound 0.6325 µM) | relative viability ([2]; first compound 2 µM) | relative viability (Trametinib + Tozasertib; first compound 0.0025 µM) | relative viability (Trametinib + Tozasertib; first compound 0.007906 µM) | relative viability (Trametinib + Tozasertib; first compound 0.025 µM) | relative viability (Trametinib + Tozasertib; first compound 0.07906 µM) | relative viability (Trametinib + Tozasertib; first compound 0.25 µM) |
| --- | --- | --- | --- | --- | --- | --- | --- | --- | --- | --- | --- | --- | --- | --- | --- | --- | --- | --- | --- | --- |
| HOP-62 | 0.395 | 0.377 | 0.417 | 0.376 | 0.125 | 0.683 | 0.709 | 0.592 | 0.599 | 0.648 | 0.783 | 0.986 | 0.802 | 0.946 | 0.957 | 0.419 | 0.367 | 0.374 | 0.232 | 0.203 |
| LC-2-ad | 0.683 | 0.663 | 0.706 | 0.695 | 0.604 | 0.572 | 0.482 | 0.45 | 0.597 | 0.515 | 1.05 | 0.885 | 1.05 | 1.22 | 1.07 | 0.487 | 0.406 | 0.406 | 0.393 | 0.306 |
| SW 900 | 0.838 | 0.782 | 0.669 | 0.809 | 0.518 | 0.495 | 0.585 | – | 0.537 | 0.481 | 0.191 | 0.186 | – | 0.165 | 0.176 | 0.579 | 0.547 | 0.724 | 0.511 | 0.412 |
| NCI-H322M | 0.652 | 0.631 | 0.689 | 0.518 | 0.595 | 0.239 | 0.254 | 0.236 | 0.248 | 0.264 | 0.812 | 0.76 | 0.798 | 0.946 | 0.929 | 0.465 | 0.361 | 0.387 | 0.331 | 0.369 |
| SK-LU-1 | 0.429 | 0.364 | 0.406 | 0.311 | 0.274 | 0.118 | 0.129 | 0.175 | 0.191 | 0.154 | 0.201 | 0.185 | 0.191 | 0.184 | 0.2 | 0.301 | 0.309 | 0.286 | 0.264 | 0.181 |
| NCI-H1734 | 0.632 | 0.578 | – | 0.59 | 0.431 | 0.453 | 0.408 | – | 0.455 | 0.517 | 0.212 | 0.208 | – | 0.203 | 0.866 | 0.255 | 0.243 | 0.216 | 0.203 | 0.205 |
| HCC-44 | 0.96 | 1.06 | 1.08 | 0.897 | 0.87 | – | – | – | – | – | 1.03 | 0.925 | – | 1.02 | 1.02 | 0.897 | 0.519 | 0.801 | 0.594 | 0.228 |
| NCI-H1703 | 0.492 | 0.513 | 0.323 | 0.385 | 0.274 | – | – | – | – | – | – | – | – | – | – | – | – | – | – | – |
| NCI-H2170 | 0.654 | 0.609 | – | 0.548 | 0.52 | 0.442 | 0.581 | 0.525 | 0.468 | 0.597 | 0.623 | 0.616 | 0.626 | 0.778 | 0.738 | 0.733 | 0.702 | 0.466 | 0.709 | 0.616 |
| NCI-H1395 | 0.441 | 0.458 | 0.419 | 0.463 | 0.392 | 0.399 | 0.425 | 0.371 | 0.422 | 0.392 | 0.876 | 0.595 | 0.521 | 0.696 | 0.669 | 0.797 | 0.73 | 0.721 | 0.718 | 0.548 |
| NCI-H1355 | 0.663 | 0.686 | 0.552 | 0.48 | 0.39 | 0.671 | 0.586 | 0.571 | 0.399 | 0.502 | 0.65 | 0.623 | 0.669 | 0.533 | 0.629 | 0.588 | 0.463 | 0.418 | 0.394 | 0.318 |
| NCI-H1650 | 0.852 | 0.735 | 0.638 | 0.568 | 0.332 | 0.262 | 0.296 | 0.26 | 0.263 | 0.277 | 0.19 | 0.183 | 0.195 | 0.203 | 0.207 | 0.422 | 0.434 | 0.397 | 0.374 | 0.23 |
| IA-LM | 0.826 | 0.74 | 0.244 | 0.242 | 0.167 | – | – | – | – | – | – | – | – | – | – | – | – | – | – | – |
| NCI-H1666 | 0.735 | 0.699 | 0.706 | 0.755 | 0.726 | 0.892 | 0.822 | 0.79 | 0.758 | 0.81 | 1 | 1.04 | 1.05 | 0.99 | 1.04 | 0.589 | 0.546 | 0.602 | 0.541 | 0.475 |
| HCC-78 | 0.774 | 0.642 | 0.82 | 0.808 | 0.557 | 0.317 | 0.578 | – | 0.34 | 0.37 | – | – | – | – | – | 0.426 | 0.416 | 0.38 | 0.452 | 0.36 |
| H3255 | 0.559 | 0.533 | 0.476 | 0.461 | 0.411 | 0.438 | 0.349 | 0.323 | 0.324 | 0.322 | 1.03 | 1 | 0.786 | 0.86 | 0.77 | 0.572 | 0.777 | 0.579 | 0.514 | 0.411 |
| NCI-H23 | 0.287 | 0.269 | 0.269 | 0.239 | 0.147 | 0.769 | 0.741 | 0.518 | 0.698 | 0.8 | 0.232 | 0.178 | – | 0.194 | 0.222 | 0.339 | 0.211 | 0.283 | 0.248 | 0.213 |
| NCI-H1944 | 0.39 | 0.343 | 0.341 | 0.288 | 0.236 | 0.214 | 0.215 | – | 0.194 | 0.217 | 0.706 | 0.742 | – | 0.767 | 0.897 | 0.262 | 0.21 | 0.185 | 0.185 | 0.177 |

From the supplement of paper PMC10307832
